{"source": "patent US20220313620A1", "about": "“COMPOSITION FOR PREVENTING AND TREATING TAUOPATHIES” (SERVICIO ANDALUZ DE SALUD, priority 2019, published 2022)", "system": "glycogen synthase kinase-3β (GSK-3β)", "test": "Hippocampal GSK-3β phosphorylation and total level (western blot) after 10 days of oral administration", "format": "in vivo, Wistar rats", "conditions": "oral 100 mg/Kg for 10 days, hippocampus", "experimental": "Animal experimental procedures were carried out in accordance with the European Communities directive 2010/63/EU and Spanish legislation (Real Decreto 53/2013). The protocol was approved by the Research and approved by Ethics Committee for Animal Experiments of the University of Malaga, Spain. In accordance with the ARRIVE guidelines, all efforts were made to minimize animal suffering and to reduce the number of animals used per experimental group. Chronic drinking experiments on Wistar rats were performed on 20 male rats. All adult rats, ageing 2 months (≈300 g of body weight), were provided by Charles River Laboratories (Barcelona, Spain). The animals were housed individually under a standard 12 h light-dark cycle in a room with temperature and humidity control. Water and rat chow pellets were provided ad libitum throughout the course of the present study.\nCaromax®-D-Pinitol (3-O-methyl-d-chiro-inositol, DPIN, 98% purity) and Caromax®-D-Chiro-inositol (cis-1,2,3-trans-3,5,6-cyclohexanehexol, DCI) were provided by Euronutra SL (Málaga, Spain). They were dissolved in water to orally daily administration by drinking and/or gavage at dose of 100 mg/Kg of body weight (BW) in a 1 ml/kg of BW volume to Zucker and Wistar rats for 4 weeks (28 days) and 10 days, respectively (FIG. 1). During the drinking treatments, the concentration of inositols in the water were updated considering the daily increase of BW of the rats and the possible loss of water by evaporation.\nBrain extract. Frozen brain samples (17 mg per sample) were homogenized in 1 mL of cold RIPA lysis buffer (50 mM Tris-HCl pH 7.4, 150 mM NaCl, 0.5% NaDOC, 1 mM EDTA, 1% Triton, 0.1% SDS, 1 mM Na3VO4, 1 mM NaF) supplemented with a protease cocktail (Hoffmann-Roche). The suspension was incubated for 2 hours at 4° C., followed by centrifugation at 12,000 rpm for 15 minutes at 4° C. The supernatant was transferred to a new clean centrifuge tube, and Bradford colorimetric method was used to determine the concentration of the total protein. The protein extracts were diluted 1:1 in loading buffer (DTT 2X) and heated for 5 minutes at 99° C. before being subjected to electrophoresis.\nWestern Blot Analysis. The tissue protein (10-15 μg) was subjected to electrophoresis on 4-12% Criterion XT Precast Bis-Tris gels (Bio-Rad, USA) for 30 minutes at 80V and 2 h at 150V. Proteins were transferred onto a 0.2 μm nitrocellulose membrane (Bio-Rad, USA) for 1 h at 80V by wet transfer equipment. The membrane was washed twice for 5 min in TBST (10 mM Tris-HCl, 150 mM NaCl, 0.1% Tween 20, pH 7.6) and blocked with 2% Bovine Serum Albumin-Tris Buffered Saline Tween 20 (BSA-TBST) for one hour at room temperature on a shaker platform. Subsequently, the membrane was incubated with respective primary antibodies overnight at 4° C. diluted in 2% BSA-TBST (Table 2 for additional information). The following day, the membrane was washed three times for 5 min with TBST. An appropriate HRP conjugated rabbit/mouse secondary antibody (Promega) was diluted 1:10000 in 2% BSA-TST and incubated with the membrane for 1 h shaking at room temperature. Finally, the membrane was washed as above and exposed to chemiluminescent reagent (Santa Cruz, Biotechnology Inc.) for 5 min. Stripping/reproving steps were used when necessary. Respective membrane bound protein was then visualized by Chemiluminescence (ChemiDoc Imaging System, Bio-Rad). Bands were quantified by densitometric analysis using ImageJ software (Rasband, WS, ImageJ, US National Institutes of Health, Bethesda, Md., USA). Normalization was performed using a reference protein of the same membrane, the α-Adaptin. The results were expressed as the protein/α-Adaptin ratio or phosphorylated/total protein ratio and normalized to the control group (Y axis represents ‘fold mean of the control values’).\nAll data are expressed as mean±SEM. Statistical analysis was undertaken for studies where each group size was of, at least, n=5. […]"}
{"molecule": "COC1[C@@H](O)[C@@H](O)C(O)[C@H](O)[C@H]1O", "note": "(stereo partly drawn) [DPIN, (1S,2S,4S,5R)-6-methoxycyclohexane-1,2,3,4,5-pentol]", "values": [{"measurement": "GSK-3β serine-9 phosphorylation", "setting": "FIG. 9A.1", "result": "no effect"}, {"measurement": "GSK-3β tyrosine-216 phosphorylation", "setting": "FIG. 9A.2", "result": "no effect"}, {"measurement": "GSK-3β kinase activity (Ser9/Tyr216)", "setting": "FIG. 9A.3", "result": "neither enhance nor inhibition"}]}
